The values that follow are results of earlier work, collected in patent US20040072746A1, “Inhibitors of monocarboxylate transport” (priority 2001, published 2004).

The structures appear in SMILES notation.

In general, IC50 refers to the midpoint of a concentration-inhibition curve.

This data set deals with T1, rat MCT1 (Rattus norvegicus, UniProt P53987).
T1 sequence (P53987 1-494): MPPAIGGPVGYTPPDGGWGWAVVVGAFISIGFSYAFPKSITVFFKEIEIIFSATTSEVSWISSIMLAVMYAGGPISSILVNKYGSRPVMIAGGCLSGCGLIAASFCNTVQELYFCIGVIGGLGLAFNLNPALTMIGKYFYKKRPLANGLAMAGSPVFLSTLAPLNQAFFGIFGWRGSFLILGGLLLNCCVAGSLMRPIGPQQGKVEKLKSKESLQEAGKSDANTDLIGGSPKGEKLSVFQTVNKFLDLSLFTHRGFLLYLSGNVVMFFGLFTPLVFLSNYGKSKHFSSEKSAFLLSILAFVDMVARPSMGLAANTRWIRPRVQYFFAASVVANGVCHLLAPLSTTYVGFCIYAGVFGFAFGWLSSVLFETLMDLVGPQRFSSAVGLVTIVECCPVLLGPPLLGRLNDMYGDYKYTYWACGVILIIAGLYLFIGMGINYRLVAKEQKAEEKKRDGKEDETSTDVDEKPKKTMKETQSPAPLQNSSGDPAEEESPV
The note with it: cited from earlier work.

With `O=C(CCc1ccc(O)cc1)c1c(O)cc(O)cc1O` [phloretin], the IC50 was 1 µM. Consider `N#CC(=Cc1ccc(O)cc1)C(=O)O` [CHC, α-cyano-4-hydroxycinnamate], for which the IC50 is 27 µM. Turning to `O=S(=O)(O)c1cc(N=C=S)ccc1C=Cc1ccc(N=C=S)cc1S(=O)(=O)O` [DIDS, 4,4′-di-isothiocyanatostilbene-2,2′-disulphonate], the IC50 is 50 µM.
